Test results: patent publication US4562275A, “Antitumor platinum complexes” (priority 1984, dated 1985)
Where “and” joins values, the source holds several entries; their conditions need not be identical. Equal entries are not always repeated.

Legend:
L1210 leukemia = experiment: Antitumor activity vs transplantable L1210 leukemia (ip) in mice; assay type: in vivo, mouse; conditions: for Max % T/C: dying mice only; for OD (optimum dose): optimum dose from the L1210 test
Text: The antitumor activities of the complexes provided by the present invention have been determined against L-1210 leukemia in the mouse and, for certain of the complexes, against other mouse tumor systems.
(§1) Results of antitumor testing against the transplantable mouse tumors L1210 leukemia, cisplatin-resistant L1210 leukemia, B16 melanoma, Madison 109 lung carcinoma and colon 26 carcinoma are shown below in Tables 1 and 2.
In Table 1 are shown the maximum % T/C values obtained for each platinum compound versus L1210 leukemia using both single and qd 1→5 dosing.
(§2) The methods used to evaluate the platinum complexes for antitumor activity and toxicity in animals are summarized below. These methods have been published elsewhere in more detail (Rose, et al. Cancer Treat. Rep. 66: 135, 1982; Florczyk, et al, Cancer Treat. Rep. 66: 187, 1982).
(§3) The parent line of L1210 leukemia (L1210) was maintained in DBA/2 mice by ip transplantation of 10^5 cells at weekly intervals. […] B16 malenoma (B16) was maintained by sc transplant in C57BL/6 mice every two weeks. Madison 109 lung carcinoma (M109) and colon 26 carcinoma (C26) were maintained by sc transplant in BALB/c mice every two weeks.
(§4) The level and route of tumor inoculum, host, group size, and drug treatment schedule and route for each tumor type are summarized below in Table 6. Each complex was evaluated initially against L1210 at 4 dose levels per schedule selected on the basis of lethality data provided by the Wadley Institute. In subsequent experiments with the other tumors the complexes were evaluated at a minimum of 3 dose levels selected on the basis of maximum tolerated levels in the L1210 experiments. Cisplatin-treated groups and a saline-treated (or untreated) tumor control group were included in each experiment.
(§5) The L1210 experiments were terminated on Day 30 whereas the B16, C26 and M109 experiments were terminated on Day 60 (some C26 experiments were terminated on Day 75). Mice alive at the termination day were autopsied and considered cured if no tumor was visible. […] A complex was considered active if it produced a % T/C value ≥125.

B16 melanoma [1] = experiment: Antitumor activity vs ip B16 melanoma in mice; assay type: in vivo, mouse; parameters: O.D.: unit not given here; conditions: for O.D.: ip B16 (3×; 9×); for Max. % T/C: ip B16 (3×; 9×): q4d × 3 or qd 1-9, ip, dying mice only; for Ratio of Max. % T/C Complex/cDDP: ip B16, relative to concomitant cisplatin
Text: as §2, §3
The level and route of tumor inoculum, host, group size, and drug treatment schedule and route for each tumor type are summarized below in Table 6. Each complex was evaluated initially against L1210 at 4 dose levels per schedule selected on the basis of lethality data provided by the Wadley Institute.
as §5

[2] = test system: L1210/CDDP (cisplatin resistant line of L1210 leukemia); experiment: Antitumor activity vs cisplatin-resistant L1210 leukemia (L1210/CDDP) in mice; assay type: in vivo, mouse
Text: Results of antitumor testing against the transplantable mouse tumors L1210 leukemia, cisplatin-resistant L1210 leukemia, B16 melanoma, Madison 109 lung carcinoma and colon 26 carcinoma are shown below in Tables 1 and 2. […]
as §2, §3, §4, §5

BDF1 mice [3] = experiment: Deaths (D.14) in the BUN test in BDF1 mice; assay type: in vivo, mouse
BDF1 mice [4] = experiment: Nephrotoxicity: effect on blood urea nitrogen (BUN) in BDF1 mice; conditions: for BUN↑, Mouse: effect relative to cisplatin
Procedure: The other compounds were in such short supply that they were tested for effects on BUN values using the optimum dose (O.D.) from the L1210 test for dose selection.
The toxicity studies were done in male BDF1 mice (25-29 gm) and castrated male Fitch ferrets (1-1.5 kg).
The complexes that were active against L1210 were evaluated for nephrotoxicity by determining their effects on blood urea nitrogen (BUN) levels in mice. Groups of 40-50 mice/experiment were bled from the retro-orbital plexus and individual BUN values determined by a modified urease method using a Centrifichem System 400. The test complex, or saline for controls, was given at several dose levels (5-10 mice/dose) in single ip injections. The highest dose of the complex usually corresponded to its LD50 value or 1.5 times its optimal single dose in the L1210 experiment. At least two lower doses were included to evaluate dose-related effects. The BUN values were measured 4 and 7 days after dosing. BUN values ≥30 mg% were considered indicative of drug-induced nephrotoxicity.

BDF1 mice [5] = experiment: Single-dose ip LD50 in BDF1 mice; assay type: in vivo, mouse; conditions: 30 days observation
Procedure: Single-dose ip LD50 values were determined in BDF1 mice for the indicated complexes.

C26 carcinoma = experiment: Antitumor activity vs ip C26 (colon 26) carcinoma in mice; assay type: in vivo, mouse; parameters: O.D.: unit not given here; conditions: for Max. % T/C: ip C26 (2×; 4×): q3d × 2 or qd 1-4, ip, dying mice only; for Ratio of Max. % T/C Complex/cDDP: ip C26, relative to concomitant cisplatin
Text: as §1, §2, §3, §4, §5
8 q3d^b × 2 or qd 1-4, ip

M109 carcinoma = experiment: Antitumor activity vs ip M109 (Madison 109 lung) carcinoma in mice; assay type: in vivo, mouse; parameters: O.D.: unit not given here; conditions: for Max. % T/C: ip M109 (2×; 4×): q3d × 2 or qd 1-4, ip, dying mice only; for O.D.: ip M109 (2×; 4×); for Ratio of Max. % T/C Complex/cDDP: ip M109, relative to concomitant cisplatin
Text: as §1, §2, §3, §4, §5
8 q3d^a × 2 or qd 1-4, ip

B16 melanoma [6] = experiment: Antitumor activity vs B16 melanoma, sc tumor implant with iv drug dosing; assay type: in vivo, mouse
Text: ^b Sc tumor implant with iv drug dosing.
as §3, §4, §5

ferret = experiment: Emetic effects (and lethality) in the ferret; assay type: in vivo, castrated male Fitch ferrets
Procedure: Selected complexes were evaluated for emetic effects in ferrets. […] The time to the first emetic episode (retching and expulsion of vomitus) and the number of episodes were recorded. […] Subsequent test doses were selected based on the emetic response and lethality of the initial dose.

[7] = Solubility stated in the preparation examples
[8] = L1210, Day 1, in intralipid plus ethanol
[9] = L1210, single dose Day 1, ip, (a), (b) determinations
[10] = L1210, single dose Day 1, ip, dose giving the Max % T/C, same order
[11] = Day 1, in intralipid plus ethanol

Row | Compound | O.D. (optimal dose) (L1210 leukemia; L1210, QD 1 → 5, ip) | Max % T/C (L1210 leukemia; [9]) | O.D. (optimal dose) (L1210 leukemia; [10]) | OD (optimum dose) (L1210 leukemia) | O.D. (B16 melanoma [1]) | Max. % T/C (B16 melanoma [1]) | BUN↑, Mouse (BDF1 mice [4]) | LD50 (BDF1 mice [5]) | Max % T/C (L1210 leukemia; L1210, QD 1 → 5, ip) | O.D. (optimal dose) ([2]; Day 1) | Max % T/C ([2]; Day 1, dying mice only) | Deaths D.14 (BDF1 mice [3]; 17 mg/kg ip) | Incidence of BUN > 30 mg % (BDF1 mice [4]; 17 mg/kg ip) | Cures/total ([2]; Day 1) | Deaths D.14 (BDF1 mice [3]; 22.5 mg/kg ip) | Deaths D.14 (BDF1 mice [3]; 30 mg/kg ip) | O.D. (M109 carcinoma) | Max. % T/C (M109 carcinoma) | Incidence of BUN > 30 mg % (BDF1 mice [4]; 22.5 mg/kg ip) | Incidence of BUN > 30 mg % (BDF1 mice [4]; 30 mg/kg ip) | further results
1 | CCCCB([O-])[O-].N[C@@H]1CCCC[C@H]1N.[Pt+2] (relative stereo) [Example 7, n-butylboronato trans(-)-1,2-diaminocyclohexane platinum(II)] | 1 mg/kg/inj | 179% | 3 mg/kg/inj | 3.6 mg/kg/ip | 1.2 | 120% | 0 | 11.3 mg/kg/ip | – | – | – | – | – | – | – | – | – | – | – | – | O.D. (optimal dose) (L1210 leukemia; [8]): 6 mg/kg/inj; Max % T/C (L1210 leukemia; [8]): 236% and 217%; Cures/total [2, 11]: 5/6; O.D. (optimal dose) [2, 11]: 8 mg/kg/inj; Max % T/C ([2]; Day 1, in intralipid plus ethanol, dying mice only): 427%; Deaths D.14 (BDF1 mice [3]; 6.4 mg/kg ip): 0/10; Deaths D.14 (BDF1 mice [3]; 8.5 mg/kg ip): 0/10; Deaths D.14 (BDF1 mice [3]; 11.3 mg/kg ip): 0/10; Incidence of BUN > 30 mg % (BDF1 mice [4]; 6.4 mg/kg ip): 0/10; Incidence of BUN > 30 mg % (BDF1 mice [4]; 8.5 mg/kg ip): 0/10; Incidence of BUN > 30 mg % (BDF1 mice [4]; 11.3 mg/kg ip): 0/10
2 | N.N.[Cl][Pt][Cl] [Cisplatin, reference compound] | – | – | – | 8 mg/kg/ip | – | – | – | – | – | – | – | – | – | – | – | – | – | – | – | – | Cures/total (C26 carcinoma; ip C26 (2×; 4×)): 2/8; Max. % T/C (C26 carcinoma; listed as cDDP): 176% and 163% and 144%; O.D. (C26 carcinoma; ip C26 (2×; 4×), listed as cDDP): 4 and 3 and 2.5; Max. % T/C (B16 melanoma [1]; listed as cDDP): 172% and 186% and 191% and 220% and 185% and 212% and 189%; Deaths D.14 (BDF1 mice [3]; 8 mg/kg ip, historical ranges, 20160 min): 0-40%; Deaths D.14 (BDF1 mice [3]; 10.5 mg/kg ip, historical ranges, 20160 min): 0-50%; Deaths D.14 (BDF1 mice [3]; 12 mg/kg ip, historical ranges, 20160 min): 20-100%; Deaths D.14 (BDF1 mice [3]; 14 mg/kg ip, historical ranges): 50-100%; Max. % T/C (M109 carcinoma; listed as cDDP): 153% and 175% and 155% and 163% and 142%; O.D. (B16 melanoma [6]): 6; Max. % T/C (B16 melanoma [6]; dying mice only): 152%
3 | N[C@@H]1CCCC[C@H]1N.[O]=[Mn](=[O])([O-])[O-].[Pt+2] [Example 8, manganato trans(-)-1,2-diaminocyclohexane platinum(II)] | 2.5 mg/kg/inj | 214% and 186% | 20 mg/kg/inj and 18 mg/kg/inj | 20 mg/kg/ip | 2 | 160% | 0 | 31 mg/kg/ip | 293% | 8 mg/kg/inj | 181% | 1/10 | 0/9 | – | – | – | – | – | – | – | Deaths D.14 (BDF1 mice [3]; 23 mg/kg ip): 3/10; Deaths D.14 (BDF1 mice [3]; 31 mg/kg ip): 2/10; Incidence of BUN > 30 mg % (BDF1 mice [4]; 23 mg/kg ip): 0/7; Incidence of BUN > 30 mg % (BDF1 mice [4]; 31 mg/kg ip): 0/8; Emesis Episodes (ferret; 16 mg/kg iv): 15; Emesis onset in responding animals (ferret; 16 mg/kg iv): 16 min; No. With Emesis/No. tested (ferret; 16 mg/kg iv, 6 h observation): 1/1; acute lethality (ferret; ferret, 16 mg/kg iv): 44 min; Lethal dose (ferret; ferret, doses marked * = Lethal dose): 16 mg/kg iv
4 | CCC(=O)C(=O)[O-].CCC(=O)C(=O)[O-].N[C@@H]1CCCC[C@H]1N.[Pt+2] (relative stereo) [Example 5, bis(2-ketobutyrato)trans(-)-1,2-diaminocyclohexane platinum(II)] | 2.5 mg/kg/inj | 186% and 200% | 10 mg/kg/inj and 9 mg/kg/inj | 10 mg/kg/ip | 4 | 163% | 0 | 30 mg/kg/ip | 193% | 9 mg/kg/inj | 144% | 1/10 | 0/10 | 2/6 | 1/10 | 3/10 | 6 | 131% | 0/10 | 1/9 | –
5 | phosphonoacetato trans(-)-1,2-diaminocyclohexane platinum(II) [Example 11] | 10 mg/kg/inj | 179% and 225% | 20 mg/kg/inj and 24 mg/kg/inj | 20 mg/kg/ip | 9 | 206% | – | 20 mg/kg/ip | 207% | 24 mg/kg/inj | 240% | – | – | 2/6 | – | 0/5 | 10 | 114% | – | 0/5 | O.D. (C26 carcinoma; ip C26 (2×; 4×)): 8; Max. % T/C (C26 carcinoma): 116%; Ratio of Max. % T/C Complex/cDDP (C26 carcinoma): .81; Solubility in alcohol ([7]; alcohol): insoluble; Solubility in water [7]: soluble; Ratio of Max. % T/C Complex/cDDP (B16 melanoma [1]): .97; Deaths D.14 (BDF1 mice [3]; 20 mg/kg ip): 0/5; Ratio of Max. % T/C Complex/cDDP (M109 carcinoma): .74; Incidence of BUN > 30 mg % (BDF1 mice [4]; 20 mg/kg ip): 0/5
6 | CC(C)CC(C)(N)CN.[O-]B([O-])O.[Pt+2] (stereo not shown) [Example 10, borato 1,2-diamino-2,4-dimethylpentane platinum(II)] | 10 mg/kg/inj | 171% and 225% | 20 mg/kg/inj and 24 mg/kg/inj | 10-20 mg/kg/ip | 9 | 174% | < | 30 mg/kg/ip | 236% | 24 mg/kg/inj | 307% | 0/10 | 0/10 | 5/6 | 0/10 | 1/10 | 5 | 74% | 1/10 | 7/10 | O.D. (C26 carcinoma; ip C26 (2×; 4×)): 8; Max. % T/C (C26 carcinoma): 100%; Ratio of Max. % T/C Complex/cDDP (C26 carcinoma): .69; Solubility in methanol ([7]; methanol): soluble; Solubility in water [7]: soluble; Ratio of Max. % T/C Complex/cDDP (B16 melanoma [1]): .82; Ratio of Max. % T/C Complex/cDDP (M109 carcinoma): .48
